Source: article PMC6152416, “Pharmacological and Toxicological Screening of Novel Benzimidazole-Morpholine Derivatives as Dual-Acting Inhibitors” (Molecules : A Journal of Synthetic Chemistry and Natural …, 2017)
Converted amounts (≈) assume the structure as drawn.

Assays:
[1] = system: Pseudomona aeuroginosa ATCC 27853; experiment: Antimicrobial broth microdilution (CLSI M07-A9); assay type: cell-based; conditions: for fold lower MIC50 / greater activity than chloramphenicol: Pseudomona aeuroginosa ATCC 27853; for MIC50: Pseudomona aeuroginosa [sic] ATCC 27853
Description: Microbiological studies were performed according to CLSI reference M07-A9 broth microdilution method for bacterial strains and EUCAST definitive method EDef 7.1 for Candida species. Synthesized compounds were tested for their in vitro growth inhibitory activity against Escherichia coli ATCC 35218, Escherichia coli ATCC 25922, Staphylococcus aureus, ATCC 25923, Pseudomona aeuroginosa ATCC 27853, Enterococcus faecalis ATCC29212, Klebsiella pneumoniae ATCC700603 Listeria monocytogenes ATCC7644, Candida albicans ATCC90028, Candida glabrata ATCC 90030, Candida krusei ATCC 6258, Candida parapsilosis ATCC 22019.
The cultures were obtained from Mueller-Hinton broth (Difco) for the bacterial strains and the yeasts were maintained in Roswell Park Memorial Institute (RPMI) medium, after an overnight incubation at 37 °C for both. The inocula of the test microorganisms were adjusted to match an equivalent turbidity of a 0.5 McFarland standard, which was determined using a spectrophotometer; the final inoculum size was determined to be 0.5–2.5 × 10^5 cfu/mL for antibacterial and antifungal assays. The tests were carried out for both mediums at pH = 7 and two-fold serial dilutions were applied. The last well on the microplates, which was containing only the inoculated broth, was kept as control, and the last well with no growth of microorganism was recorded to represent the minimum inhibitory concentration (MIC50) in μg/mL. For both of the antibacterial and antifungal assays, the test compounds and reference drugs were firstly dissolved in DMSO, and further dilutions were performed to the desired concentrations of 1000, 500, 250, 125, 62.5, 31.25, 15.6, 7.8, 3.9 and 1.95 μg/mL using Mueller–Hinton broth and RPMI medium. The completed plates were incubated for 24 h, and at the end of the incubation, resazurin (20 µg/mL) was added into each well to control the growth in the wells. Final plates including microorganism strains were incubated for 2 h. MIC50 values were determined using microplate reader at […] wavelengths; MIC50 readings were performed twice for entire compounds. Chloramphenicol and ketoconazole were used as reference drugs.

[2] = Ames MPF genotoxicity assay; assay type: cell-based, Salmonella typhimurium; conditions: Salmonella typhimurium; TA100, with/without S9, each concentration level; read-out: fold inductions over baseline
Description: The genotoxicity of selected compounds (2b, 2j, 2m) was determined by Ames assay using Ames MPF 98/100 mutagenicity assay sample kit (Xenometrix AG, Allschwil, Switzerland) as previously described elsewhere. Salmonella typhimurium strains, TA98 (frameshift mutations) and TA100 (base-pair substitutions) were used in the assay. The concentration of the compounds was between 16 and 5000 μg/mL, in accordance with the guideline. Compounds were prepared in six different concentrations (5.0, 2.5, 1.25, 0.625, 0.3125, 0.156 mg/mL) in DMSO. Mutagenic potential was determined in the absence or presence of Aroclor™-1254 induced male Sprague–Dawley rat liver microsomal enzyme (S9) mix (Xenometrix AG). Positive controls without S9 mix were 2-nitrofluorene (2.0 μg/mL) and 4-nitroquinoline N-oxide (0.1 μg/mL), whereas 1.0 μg/mL and 2.5 μg/mL of 2-aminoanthracene solutions were used as positive controls with S9 against TA98 and TA100, respectively. Solvent control was prepared with 4% DMSO. The end of an experiment was determined by the change of the indicator medium colour to yellow, which was originating from the decrease of pH due to revertant bacteria. Yellow wells were counted as positive, and compared with the negative control. Fold induction over the negative control and fold induction over the baseline were calculated (Fold induction over the negative control is accepted as the ratio of the mean number of positive wells for the dose concentration divided by the mean number of positive wells for the zero dose (negative) control. Fold induction over the baseline is accepted as the ratio of the mean number of positive wells for the dose concentration divided by zero dose baseline. The zero-dose baseline is obtained by adding one standard deviation to the mean number of positive wells of the zero dose control. If the baseline is less than 1, the value is set to 1 for calculation).
Mutagenicity was determined according to the criteria reported previously. For a baseline value of ≤3, significant increases between 2 and 3-fold of the baseline were classified as weak mutagen, and increases ≥3-fold of the baseline were classified as mutagen. […] As a rule, at least two adjacent doses with significant increases or a significant increase at the highest dose level should be observed for a mutagenic compound. All of the doses were compared according to Student’s t-test at p < 0.05 for statistical significance.

COc1ccc(-c2nc3ccccc3n2CCN2CCOCC2)cc1 [Compound 2b, 2-(4-Methoxyphenyl)-1-[2-(morpholin-4-yl)ethyl]-1H-benzimidazole]
fold lower MIC50 / greater activity than chloramphenicol [1]: 16 fold
MIC50 [1]: 0.0156 µg/mL (≈ 0.0462 µM)
fold induction [2]: < 1.5

Clc1ccc(-c2nc3ccccc3n2CCN2CCOCC2)cc1 [Compound 2c, 2-(4-Chlorophenyl)-1-[2-(morpholin-4-yl)ethyl]-1H-benzimidazole]
fold lower MIC50 / greater activity than chloramphenicol [1]: 2 fold
MIC50 [1]: 125 µg/mL (≈ 366 µM)

CC(C)c1ccc(-c2nc3ccccc3n2CCN2CCOCC2)cc1 [Compound 2e, 2-(4-Isopropylphenyl)-1-[2-(morpholin-4-yl)ethyl]-1H-benzimidazole]
MIC50 [1]: 250 µg/mL (≈ 715 µM)

FC(F)(F)Oc1ccc(-c2nc3ccccc3n2CCN2CCOCC2)cc1 [Compound 2m, 2-(4-Trifluoromethoxyphenyl)-1-[2-(morpholin-4-yl)ethyl]-1H-benzimidazole]
fold lower MIC50 / greater activity than chloramphenicol [1]: 2 fold
MIC50 [1]: 125 µg/mL (≈ 319 µM)
fold induction [2]: < 1.5
